Measured values as given in US10881110B2, “Herbicidal compositions comprising isoxazolo[5,4-b]pyridines” (BASF SE, priority 2014, dated 2021).

System: PHACA
Test: greenhouse post-emergence herbicidal test
Type: in vivo
Experimental: The culture containers used were plastic pots containing medium loamy sand with approximately 4.6% of humus and 69.9% sand as substrate. The seeds of the test plants were sown separately for each species.
For the post-emergence treatment, the test plants were grown to a plant height of from 1 to 15 cm, depending on the plant habit, and only then treated with the active compounds which had been suspended or emulsified in water. To this end, the test plants were either sown directly, and grown in the same containers, or they were first grown separately as seedlings and transplanted into the test containers a few days prior to treatment.
Depending on the species, the plants were kept at 10-25° C. and 20-35° C., respectively.
The test period extended over 1 to 3 weeks. During this time, the plants were tended and their response to the individual treatments was evaluated 20 days after treatment except mentioned otherwise.
Evaluation was carried out using a scale from 0 to 100. 100 means no emergence of the plants, or complete destruction of at least the above-ground parts, and 0 means no damage or normal course of growth.
The respective stated components A and B, and, if appropriate, C, were formulated as a 10% by weight strength emulsion concentrate and, with addition of the amount of solvent system, introduced into the spray liquor used for applying the active compound. In the examples, the solvent used was water.
In the examples below, using the method of S. R. Colby (1967) “Calculating synergistic and antagonistic responses of herbicide combinations”, Weeds 15, p. 22 ff., the value E, which is expected if the activity of the individual active compounds is only additive, was calculated. E=X+Y−(X·Y/100)

O=C(O)c1cc(C2CC2)nc2onc(C3CC3)c12 [I.1]
herbicidal activity against PHACA found (a.i. g/ha: I.1 31.25, B.67 125, 20 days after treatment): 0% | herbicidal activity against PHACA found (a.i. g/ha: I.1 62.5, B.67 125, 20 days after treatment): 35%
